The text below walks through data of ChEMBL document CHEMBL1201862, “PubChem BioAssay data set” (2004).

Data set [1] is described as follows: Counterscreen for AddAB inhibitors: absorbance-based bacterial cell-based high throughput dose response assay for inhibitors of bacterial viability. [Related pubchem assays (depositor defined):AID435030, AID449728, AID449731, AID488942, AID488955, AID488956]. Type of data set: functional.
The target in a further data set is T1, Exodeoxyribonuclease V (Escherichia coli (strain K12), UniProt P04993+P07648+P08394).
T1 sequence (P04993 whole entry): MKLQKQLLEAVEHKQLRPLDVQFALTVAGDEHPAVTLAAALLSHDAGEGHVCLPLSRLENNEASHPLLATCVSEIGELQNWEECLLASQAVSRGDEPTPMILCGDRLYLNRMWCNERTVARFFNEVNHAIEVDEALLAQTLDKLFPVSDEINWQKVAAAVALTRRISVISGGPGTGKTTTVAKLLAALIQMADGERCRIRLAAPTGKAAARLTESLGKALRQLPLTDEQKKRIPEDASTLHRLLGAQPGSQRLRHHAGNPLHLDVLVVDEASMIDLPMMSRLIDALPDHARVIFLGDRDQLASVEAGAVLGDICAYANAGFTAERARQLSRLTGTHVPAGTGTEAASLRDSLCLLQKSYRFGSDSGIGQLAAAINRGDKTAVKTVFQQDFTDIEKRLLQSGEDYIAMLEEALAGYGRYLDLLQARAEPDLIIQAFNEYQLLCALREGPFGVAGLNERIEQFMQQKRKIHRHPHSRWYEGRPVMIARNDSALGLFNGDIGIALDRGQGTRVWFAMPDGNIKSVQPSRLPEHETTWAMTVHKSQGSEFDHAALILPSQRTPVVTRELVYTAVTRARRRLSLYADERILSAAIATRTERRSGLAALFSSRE
T1 sequence (P07648 whole entry): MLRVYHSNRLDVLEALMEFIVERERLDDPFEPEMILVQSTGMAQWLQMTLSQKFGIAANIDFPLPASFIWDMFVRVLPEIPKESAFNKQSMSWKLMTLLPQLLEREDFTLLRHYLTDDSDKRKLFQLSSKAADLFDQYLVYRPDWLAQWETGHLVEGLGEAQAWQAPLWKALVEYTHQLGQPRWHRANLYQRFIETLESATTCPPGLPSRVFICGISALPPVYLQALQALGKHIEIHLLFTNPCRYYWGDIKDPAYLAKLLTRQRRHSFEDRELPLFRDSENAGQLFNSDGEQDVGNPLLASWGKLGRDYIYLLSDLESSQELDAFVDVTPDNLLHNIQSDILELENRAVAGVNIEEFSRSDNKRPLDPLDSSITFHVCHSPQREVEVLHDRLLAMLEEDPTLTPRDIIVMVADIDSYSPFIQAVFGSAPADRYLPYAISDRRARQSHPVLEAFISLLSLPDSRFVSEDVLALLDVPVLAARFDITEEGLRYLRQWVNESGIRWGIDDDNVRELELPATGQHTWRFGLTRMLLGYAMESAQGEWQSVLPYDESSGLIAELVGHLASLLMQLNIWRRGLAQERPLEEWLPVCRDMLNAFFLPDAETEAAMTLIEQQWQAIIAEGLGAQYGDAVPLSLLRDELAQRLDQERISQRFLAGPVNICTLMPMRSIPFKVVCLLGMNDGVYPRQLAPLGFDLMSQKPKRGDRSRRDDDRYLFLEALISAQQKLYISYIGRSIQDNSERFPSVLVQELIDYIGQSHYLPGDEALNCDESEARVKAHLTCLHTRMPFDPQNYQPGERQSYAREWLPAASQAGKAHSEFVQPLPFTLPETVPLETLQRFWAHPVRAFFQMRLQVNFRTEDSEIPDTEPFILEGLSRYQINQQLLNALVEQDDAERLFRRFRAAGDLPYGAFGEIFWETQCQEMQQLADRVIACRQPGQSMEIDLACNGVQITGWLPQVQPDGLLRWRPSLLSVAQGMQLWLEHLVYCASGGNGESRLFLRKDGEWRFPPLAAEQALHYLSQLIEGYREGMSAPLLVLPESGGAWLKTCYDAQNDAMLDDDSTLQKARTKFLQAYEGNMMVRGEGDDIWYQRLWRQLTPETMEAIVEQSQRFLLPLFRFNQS
T1 sequence (P08394 whole entry): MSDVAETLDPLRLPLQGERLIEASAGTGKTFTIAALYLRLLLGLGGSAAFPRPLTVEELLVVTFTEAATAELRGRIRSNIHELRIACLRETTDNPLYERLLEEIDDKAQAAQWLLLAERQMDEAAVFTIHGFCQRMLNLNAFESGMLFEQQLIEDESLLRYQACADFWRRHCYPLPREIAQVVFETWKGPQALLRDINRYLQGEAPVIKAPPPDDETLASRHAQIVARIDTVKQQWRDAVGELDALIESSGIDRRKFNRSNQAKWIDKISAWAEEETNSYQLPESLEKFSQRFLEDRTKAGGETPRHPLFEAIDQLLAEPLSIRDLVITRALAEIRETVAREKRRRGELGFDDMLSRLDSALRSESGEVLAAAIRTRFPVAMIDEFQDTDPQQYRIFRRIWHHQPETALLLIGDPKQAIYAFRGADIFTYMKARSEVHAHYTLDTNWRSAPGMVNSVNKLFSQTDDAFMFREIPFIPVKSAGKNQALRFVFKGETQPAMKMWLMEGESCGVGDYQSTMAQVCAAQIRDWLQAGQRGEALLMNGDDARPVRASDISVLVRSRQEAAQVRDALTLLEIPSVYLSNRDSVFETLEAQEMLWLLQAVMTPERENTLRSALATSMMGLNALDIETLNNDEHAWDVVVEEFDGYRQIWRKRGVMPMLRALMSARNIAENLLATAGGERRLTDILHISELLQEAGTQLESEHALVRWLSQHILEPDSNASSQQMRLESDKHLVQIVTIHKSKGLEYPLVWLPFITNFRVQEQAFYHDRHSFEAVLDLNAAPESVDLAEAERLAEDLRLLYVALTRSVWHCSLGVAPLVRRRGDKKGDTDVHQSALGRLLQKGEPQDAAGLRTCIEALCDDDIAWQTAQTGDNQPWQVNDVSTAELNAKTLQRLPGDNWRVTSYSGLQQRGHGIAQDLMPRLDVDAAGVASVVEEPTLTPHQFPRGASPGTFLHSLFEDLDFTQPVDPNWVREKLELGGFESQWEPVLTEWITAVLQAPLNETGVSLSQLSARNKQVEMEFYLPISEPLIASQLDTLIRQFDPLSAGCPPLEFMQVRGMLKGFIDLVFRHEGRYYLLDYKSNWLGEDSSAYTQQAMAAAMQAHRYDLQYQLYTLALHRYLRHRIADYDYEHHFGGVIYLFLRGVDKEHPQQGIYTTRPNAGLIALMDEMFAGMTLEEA
The experiment in a line: E. coli RecBCD inhibitors, dose response, counter-screen for AddAB inhibitor project, absorbance, V66 E. coli, mutant T4 phage (AID 492957). In kind it is functional, cell-based, Escherichia coli str. K-12 substr. MG1655.

The target of data set [2] is Kappa-type opioid receptor (Homo sapiens, UniProt P41145). The experiment in a line: SAR analysis of small molecule agonists of the kappa opioid receptor via a luminescent beta-arrestin assay - Set 3. [Related pubchem assays (depositor defined):AID1777, AID1785, AID1786, AID1966, AID2133, AID2136, AID2284, AID2500]. In kind it is functional.
Chain of Kappa-type opioid receptor (P41145 whole entry): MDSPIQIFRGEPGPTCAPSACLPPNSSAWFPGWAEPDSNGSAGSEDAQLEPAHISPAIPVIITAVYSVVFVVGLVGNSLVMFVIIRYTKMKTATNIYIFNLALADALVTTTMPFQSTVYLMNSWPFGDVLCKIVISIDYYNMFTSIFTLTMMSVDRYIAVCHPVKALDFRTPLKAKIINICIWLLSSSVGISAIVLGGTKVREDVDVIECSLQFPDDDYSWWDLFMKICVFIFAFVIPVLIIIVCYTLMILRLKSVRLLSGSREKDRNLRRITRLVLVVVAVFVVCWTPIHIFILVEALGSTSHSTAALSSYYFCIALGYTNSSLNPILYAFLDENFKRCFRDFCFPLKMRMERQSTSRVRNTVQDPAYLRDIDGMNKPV
The next data set deals with Cytochrome P450 3A4 (Homo sapiens, UniProt P08684).
Chain of Cytochrome P450 3A4 (P08684 whole entry): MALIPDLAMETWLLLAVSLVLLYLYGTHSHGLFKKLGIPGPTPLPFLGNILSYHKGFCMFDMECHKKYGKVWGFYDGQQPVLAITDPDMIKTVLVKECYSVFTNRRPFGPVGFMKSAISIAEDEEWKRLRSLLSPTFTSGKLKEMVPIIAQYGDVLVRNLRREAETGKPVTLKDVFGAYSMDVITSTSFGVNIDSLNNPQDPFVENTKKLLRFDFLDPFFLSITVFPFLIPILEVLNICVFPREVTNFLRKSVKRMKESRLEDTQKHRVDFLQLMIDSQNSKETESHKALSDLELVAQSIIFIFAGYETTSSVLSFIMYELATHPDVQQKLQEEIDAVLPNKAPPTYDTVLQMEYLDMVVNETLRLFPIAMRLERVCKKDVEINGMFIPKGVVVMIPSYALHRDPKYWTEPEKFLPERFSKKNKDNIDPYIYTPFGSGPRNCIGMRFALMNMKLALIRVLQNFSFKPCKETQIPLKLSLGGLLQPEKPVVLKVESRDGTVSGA
Data set [3] deals with T2, Dual specificity protein phosphatase 3 (Homo sapiens, UniProt P51452). The experiment in a line: VHR1 phosphatase inhibitors, primary screen, biochemical, absorbance, uHTS (AID 1654).
T2 sequence (P51452 whole entry): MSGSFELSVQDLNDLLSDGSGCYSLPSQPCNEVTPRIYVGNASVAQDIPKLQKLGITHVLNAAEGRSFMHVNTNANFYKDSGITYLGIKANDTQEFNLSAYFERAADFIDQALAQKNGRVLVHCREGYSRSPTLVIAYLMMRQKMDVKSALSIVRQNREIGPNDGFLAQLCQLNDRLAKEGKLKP
Data set [4] concerns the target T2, Dual specificity protein phosphatase 3. The experiment in a line: VHR1 phosphatase inhibitors, biochemical (AID 1878).
Data set [5] has as its target T3, Dual specificity protein phosphatase 6 (Rattus norvegicus, UniProt Q64346).
T3 sequence (Q64346 whole entry): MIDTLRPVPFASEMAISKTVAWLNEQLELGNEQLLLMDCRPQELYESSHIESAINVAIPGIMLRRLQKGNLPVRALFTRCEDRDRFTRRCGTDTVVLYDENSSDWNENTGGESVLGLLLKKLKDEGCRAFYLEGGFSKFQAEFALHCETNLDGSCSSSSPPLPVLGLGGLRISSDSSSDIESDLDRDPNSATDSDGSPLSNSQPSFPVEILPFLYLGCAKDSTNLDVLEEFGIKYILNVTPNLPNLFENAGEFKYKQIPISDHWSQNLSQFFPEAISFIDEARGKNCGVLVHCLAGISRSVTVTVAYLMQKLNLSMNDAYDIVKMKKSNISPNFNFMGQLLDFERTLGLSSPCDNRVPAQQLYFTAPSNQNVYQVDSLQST
As to the kind of experiment: MKP-3 phosphatase inhibitors, primary screen, biochemical, rat enzyme, in vitro (AID 425).

Data set [6] addresses T4, High affinity choline transporter 1 (Homo sapiens, UniProt Q9GZV3).
T4 sequence (Q9GZV3 whole entry): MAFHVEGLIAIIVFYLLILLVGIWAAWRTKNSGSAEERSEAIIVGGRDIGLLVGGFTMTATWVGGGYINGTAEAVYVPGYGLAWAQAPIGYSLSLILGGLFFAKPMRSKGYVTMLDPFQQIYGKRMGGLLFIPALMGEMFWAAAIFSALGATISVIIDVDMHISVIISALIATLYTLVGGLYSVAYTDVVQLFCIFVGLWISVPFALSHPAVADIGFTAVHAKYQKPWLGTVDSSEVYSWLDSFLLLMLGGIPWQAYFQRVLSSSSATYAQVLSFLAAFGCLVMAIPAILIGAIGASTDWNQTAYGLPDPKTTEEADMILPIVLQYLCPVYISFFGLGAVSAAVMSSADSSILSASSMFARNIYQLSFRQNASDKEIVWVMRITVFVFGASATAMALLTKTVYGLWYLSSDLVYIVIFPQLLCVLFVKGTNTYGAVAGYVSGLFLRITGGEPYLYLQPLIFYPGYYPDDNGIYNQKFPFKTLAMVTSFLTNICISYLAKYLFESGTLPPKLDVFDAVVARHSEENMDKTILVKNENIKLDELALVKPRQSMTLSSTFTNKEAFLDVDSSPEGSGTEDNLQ
As to the kind of experiment: CHT inhibitors, dose response, cell-based, 5-point CRC, membrane potential dye (AID 504840). In kind it is functional.

A further data set has as its target T5, Coagulation factor XII (Homo sapiens, UniProt P00748).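 Note: activated factor XIIa alpha cleaving a fluorogenic AMC peptide substrate; inhibitor potency from loss of enzyme activity.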
T5 sequence (P00748 whole entry): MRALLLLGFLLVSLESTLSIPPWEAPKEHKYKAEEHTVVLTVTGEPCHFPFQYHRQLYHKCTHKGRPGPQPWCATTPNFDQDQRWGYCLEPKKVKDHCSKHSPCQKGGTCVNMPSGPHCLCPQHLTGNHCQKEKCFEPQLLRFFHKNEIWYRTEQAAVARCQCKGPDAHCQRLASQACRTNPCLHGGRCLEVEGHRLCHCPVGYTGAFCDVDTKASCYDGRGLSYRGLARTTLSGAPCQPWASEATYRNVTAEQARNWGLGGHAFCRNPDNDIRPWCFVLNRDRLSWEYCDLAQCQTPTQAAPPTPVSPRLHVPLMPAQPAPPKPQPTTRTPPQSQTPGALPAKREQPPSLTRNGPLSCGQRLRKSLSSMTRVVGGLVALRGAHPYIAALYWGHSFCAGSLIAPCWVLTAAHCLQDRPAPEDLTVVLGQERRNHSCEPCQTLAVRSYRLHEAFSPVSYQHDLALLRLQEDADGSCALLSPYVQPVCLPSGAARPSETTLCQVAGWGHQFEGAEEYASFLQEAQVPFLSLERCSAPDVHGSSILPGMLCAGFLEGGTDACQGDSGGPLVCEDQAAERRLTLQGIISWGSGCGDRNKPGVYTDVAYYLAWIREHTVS
Type of data set: functional.

For a further data set, the target named is Prothrombin (Homo sapiens, UniProt P00734). The experiment in a line: Thrombin 1536 HTS Dose Response Confirmation. [Related pubchem assays: 1046 (Thrombin 1536 HTS; hits were confirmed in this assay)]. Type of data set: functional.
For data set [7], the target named is Glucose-6-phosphate 1-dehydrogenase (Homo sapiens, UniProt P11413). The experiment in a line: human G6PD enzyme inhibitors, dose response, selectivity assay for P. falciparum G6PD inhibitor project, biochemical, fluorescence (AID 504792). Type of data set: functional.
Chain of Glucose-6-phosphate 1-dehydrogenase (P11413 whole entry): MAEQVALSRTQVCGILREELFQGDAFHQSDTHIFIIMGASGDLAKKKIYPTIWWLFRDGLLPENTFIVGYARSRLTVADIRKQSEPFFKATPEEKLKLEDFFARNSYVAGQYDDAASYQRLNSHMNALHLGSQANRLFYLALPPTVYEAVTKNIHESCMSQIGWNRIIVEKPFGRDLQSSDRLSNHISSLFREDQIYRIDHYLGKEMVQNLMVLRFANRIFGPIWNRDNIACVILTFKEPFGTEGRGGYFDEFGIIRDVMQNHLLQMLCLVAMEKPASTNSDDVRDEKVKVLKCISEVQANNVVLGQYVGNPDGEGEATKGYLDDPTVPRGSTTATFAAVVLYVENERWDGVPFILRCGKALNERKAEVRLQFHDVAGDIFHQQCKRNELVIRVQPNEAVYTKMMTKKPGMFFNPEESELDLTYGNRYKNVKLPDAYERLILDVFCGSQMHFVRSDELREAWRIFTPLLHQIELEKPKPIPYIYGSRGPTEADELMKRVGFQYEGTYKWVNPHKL
The next data set concerns the target Cytochrome P450 2C9 (Homo sapiens, UniProt P11712).

The source made the active and inactive calls. Where only a bound is given, the exact number is not on record here.

Chain of Cytochrome P450 2C9 (P11712 whole entry): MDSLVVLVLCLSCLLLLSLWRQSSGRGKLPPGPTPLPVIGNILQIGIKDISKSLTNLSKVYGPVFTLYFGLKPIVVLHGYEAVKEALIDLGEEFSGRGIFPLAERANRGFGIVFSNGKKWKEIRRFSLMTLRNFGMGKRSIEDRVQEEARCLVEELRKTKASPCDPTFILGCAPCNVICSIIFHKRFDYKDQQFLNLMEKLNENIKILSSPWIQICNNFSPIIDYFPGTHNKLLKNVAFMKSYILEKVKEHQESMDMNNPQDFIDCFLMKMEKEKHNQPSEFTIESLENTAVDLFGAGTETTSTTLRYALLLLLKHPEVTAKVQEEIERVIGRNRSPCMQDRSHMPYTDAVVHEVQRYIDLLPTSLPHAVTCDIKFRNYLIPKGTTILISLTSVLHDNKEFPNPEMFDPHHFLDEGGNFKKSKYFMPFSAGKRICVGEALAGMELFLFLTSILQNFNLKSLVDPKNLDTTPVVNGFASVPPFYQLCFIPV

`Cc1cc2c(c(=O)o1)C(c1ccc([N+](=O)[O-])o1)C(C#N)=C(N)O2` (stereo unspecified): the results for the IC50 (in [1]; on Exodeoxyribonuclease V) were 102 µM (inactive) and > 119 µM (inactive), respectively.
For `Clc1ccc(CSc2nnc(-c3ccccn3)n2Cc2cccnc2)cc1Cl`, the EC50 in data set [2] was 0.756 µM (active).
Take `COc1cccc(Cn2c(=O)c(-c3ccc(Cl)cc3)nc3cnc(N4CCN(C)CC4)nc32)c1`: the AC50 entry at Cytochrome P450 3A4 is “inconclusive”.
Take `Clc1ccc(CSc2nnc(-c3ccccn3)n2Cc2ccccc2)cc1Cl`: the EC50 in data set [2] is 1.24 µM (active).
As to `Oc1c(Br)cc(/C=N/n2c(S)nnc2-c2ccccc2)c(Br)c1O`, the IC50 was < 1.23 µM (inactive) in data set [3], 2.39 µM (active) in [4] and 90.3 µM (active) in data set [5].
For the compound `COc1ccc(C(=O)NC2CCCCC2)cc1OC1CCN(C(C)C)CC1`, in data set [6], the IC50 was 17.4 µM (active).
Take `CC12CCC(c3c(C(=O)N4CCOCC4)nn(-c4ccccc4)c31)C2(C)C` (stereo unspecified): the IC50 at Coagulation factor XII is > 50 µM (inactive).
As for `COc1ccc(-n2ncc3c(NCc4ccccn4)ncnc32)cc1`, on Coagulation factor XII, the IC50 is > 50 µM (inactive).
For `Cc1ccc(S(=O)(=O)Nc2cccnc2Oc2ccc(Cl)cc2)cc1`, the IC50 at Prothrombin is > 50 µM (not active); at Coagulation factor XII, > 50 µM (inactive).
For `Cn1cccc1C(=O)N1CCC2(CC1)CN(c1ccccn1)C2`, the AC50 entry at Cytochrome P450 3A4 is “inconclusive”.
For `Cc1cccc(C)c1OCc1cc(C(=O)N(C)Cc2nc3ccccc3[nH]2)no1`, the IC50 (in [1]; on Exodeoxyribonuclease V) was > 119 µM (inactive) in each case.
For `COc1c(O)c(O)c2oc(-c3ccccc3)cc(=O)c2c1OC`, the values for the IC50 (in [1]; on Exodeoxyribonuclease V; in data set [7]) were > 119 µM (inactive), > 119 µM (inactive) and > 80 µM (inactive), respectively.
Take `CC(=O)N1CCC2(CC1)CCN(C(c1ccccc1)c1ccccc1)CC2`: the results for the AC50 at Cytochrome P450 2C9 and at Cytochrome P450 3A4 were 39.8 µM (inconclusive) and “inconclusive”, respectively.
